Format in all cases: cell-based
One assay has as its target T1, CFTR-R117H (Homo sapiens, UniProt P13569, R117H).
T1 construct: expressed in transfected cells
Briefly: YFP-halide influx assay for the CFTR-R117H. The essentials: (§1)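 HEK293 cells reverse-transfected with the CFTR mutant plus halide-sensitive YFP (H148Q/I152L/F47L), expressed 24 h at 37 °C. Channel activity measured as I⁻-induced fluorescence quenching over 7 s after injection, expressed as 1-F/F0; EC50 from 1-F/F0 versus compound concentration.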

The target in assay [1] is T2, CFTR ΔF508 mutant (Homo sapiens, UniProt P13569, DEL508-508).
T2 construct: expressed in transfected cells; host or cells: CFBE41o- (adenoviral transduction)
Kind of assay: YFP-halide influx assay for the CFTR-ΔF508 mutation (384 well, FDSS/μCell). Conditions: CFBE41o- cells, CFTR-ΔF508, 1×D-PBS, fluorescence after 36 seconds. Summed up:
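Potentiator read-out as 1−F/F0, F taken 36 s after iodide addition, EC50 fitted against compound concentration. Cells: CFBE41o- expressing ΔF508 CFTR plus halide-sensitive YFP via adenovirus, rescued by 27 °C for 24 h or 24 h modulator at 37 °C.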

A further assay has as its target T3, CFTR-G178R (Homo sapiens, UniProt P13569, G178R).
T3 construct: expressed in transfected cells
Kind of assay: YFP-halide influx assay for the CFTR-G178R. The essentials:
as §1

The target in assay [2] is T2, CFTR ΔF508 mutant. Kind of assay: YFP-halide influx assay for the CFTR-ΔF508 mutation, gluconate buffer. Conditions: CFBE41o- cells, forskolin 10.67 μM. Summed up:
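Channel opening is read as the fall in YFP fluorescence over 7 s following iodide injection, expressed as 1-F/F0 and plotted versus compound concentration to derive EC50. Cells used were CFBE41o- expressing adenoviral ΔF508 CFTR and halide-sensitive YFP, rescued by 24 h at 27 °C or 24 h modulator treatment at 37 °C.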

Another assay addresses T4, CFTR-G1349D (Homo sapiens, UniProt P13569, G1349D).
T4 construct: expressed in transfected cells
Briefly: YFP-halide influx assay for the CFTR-G1349D. Summed up: as §1

The target in another assay is T5, CFTR G551D mutant (Homo sapiens, UniProt P13569, G551D).
T5 construct: expressed in transfected cells; host or cells: HEK293 (reverse transfection with plasmid)
Kind of assay: YFP-halide influx assay for the CFTR-G551D mutation. To be noted: HEK293 cells, forskolin 10.67 μM. Summed up:
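Channel opening potentiation measured as 1−F/F0, where F is YFP fluorescence 7 s after iodide injection and F0 before; EC50 taken from concentration plot. Cells: HEK293 transiently expressing CFTR G551D plus halide-sensitive YFP (H148Q, I152L, F47L), 24 h at 37 °C, 5% CO2.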

A further assay addresses T6, CFTR-S549N (Homo sapiens, UniProt P13569, S549N).
T6 construct: expressed in transfected cells
Briefly: YFP-halide influx assay for the CFTR-S549N. The essentials: as §1

In assay [3] the target is T2, CFTR ΔF508 mutant. Kind of assay: YFP-halide influx assay for the CFTR-ΔF508 mutation, PBS buffer (96 well). To be noted: CFBE41o- cells, forskolin 10.67 μM. Summed up:
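CFBE41o- cells were adenovirally transduced with CFTR ΔF508 and YFP H148Q/I152L, then incubated 24 h at 27 °C or with a CFTR modulator at 37 °C. I⁻-induced fluorescence quenching was recorded over 7 s after injection; response expressed as 1−F/F0, with EC50 from concentration plots.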

This passage reports EC50 results from patent US9382254B2, “Compounds and pharmaceutical compositions thereof for the treatment of cystic fibrosis” (Galapagos NV, priority 2013, dated 2016).

“And” between values parts separate entries of the source, which are not always exact repeats. Equal values may be shown once.

T6 sequence (P13569 whole entry S549N): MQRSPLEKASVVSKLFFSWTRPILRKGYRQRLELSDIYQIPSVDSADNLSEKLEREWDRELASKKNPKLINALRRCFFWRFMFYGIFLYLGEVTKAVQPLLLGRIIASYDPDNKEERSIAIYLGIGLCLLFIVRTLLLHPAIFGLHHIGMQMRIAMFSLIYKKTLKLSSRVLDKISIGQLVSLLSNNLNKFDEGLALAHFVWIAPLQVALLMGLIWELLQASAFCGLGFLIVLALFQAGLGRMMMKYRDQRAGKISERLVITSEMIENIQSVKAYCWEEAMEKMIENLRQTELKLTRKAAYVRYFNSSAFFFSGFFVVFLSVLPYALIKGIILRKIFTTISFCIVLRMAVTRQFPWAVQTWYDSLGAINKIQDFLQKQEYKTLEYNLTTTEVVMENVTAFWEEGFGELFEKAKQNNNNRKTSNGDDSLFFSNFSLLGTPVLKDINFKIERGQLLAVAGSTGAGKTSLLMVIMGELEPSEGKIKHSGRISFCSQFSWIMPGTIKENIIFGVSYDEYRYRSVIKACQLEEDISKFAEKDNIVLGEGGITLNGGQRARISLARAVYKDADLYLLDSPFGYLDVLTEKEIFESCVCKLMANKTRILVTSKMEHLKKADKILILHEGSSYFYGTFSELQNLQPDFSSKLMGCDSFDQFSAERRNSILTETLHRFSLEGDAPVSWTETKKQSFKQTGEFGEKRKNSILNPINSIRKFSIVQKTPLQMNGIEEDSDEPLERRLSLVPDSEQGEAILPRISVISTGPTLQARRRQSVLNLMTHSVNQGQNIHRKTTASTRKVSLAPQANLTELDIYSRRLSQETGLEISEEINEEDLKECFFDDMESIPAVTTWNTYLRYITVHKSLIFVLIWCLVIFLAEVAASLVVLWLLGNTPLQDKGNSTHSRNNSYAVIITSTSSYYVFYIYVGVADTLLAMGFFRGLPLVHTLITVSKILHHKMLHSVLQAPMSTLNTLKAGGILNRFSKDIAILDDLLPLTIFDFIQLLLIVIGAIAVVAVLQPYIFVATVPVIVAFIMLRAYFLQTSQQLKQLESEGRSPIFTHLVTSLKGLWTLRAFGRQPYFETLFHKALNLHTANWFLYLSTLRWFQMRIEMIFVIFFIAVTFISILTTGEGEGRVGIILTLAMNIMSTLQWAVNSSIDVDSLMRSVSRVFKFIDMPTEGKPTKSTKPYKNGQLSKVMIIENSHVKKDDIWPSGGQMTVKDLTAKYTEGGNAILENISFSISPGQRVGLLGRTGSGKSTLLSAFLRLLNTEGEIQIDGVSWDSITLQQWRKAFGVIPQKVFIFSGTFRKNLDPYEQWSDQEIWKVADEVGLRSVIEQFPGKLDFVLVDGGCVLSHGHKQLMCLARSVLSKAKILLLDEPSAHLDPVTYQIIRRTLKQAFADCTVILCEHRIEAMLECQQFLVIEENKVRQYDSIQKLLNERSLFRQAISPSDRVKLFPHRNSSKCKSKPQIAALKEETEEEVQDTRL
T4 sequence (P13569 whole entry G1349D): as the sequence (P13569 whole entry S549N) above, with N549S, G1349D counted along it
T3 sequence (P13569 whole entry G178R): as the sequence (P13569 whole entry S549N) above, with G178R, N549S counted along it
T5 sequence (P13569 whole entry G551D): as the sequence (P13569 whole entry S549N) above, with N549S, G551D counted along it
T1 sequence (P13569 whole entry R117H): as the sequence (P13569 whole entry S549N) above, with R117H, N549S counted along it
T2 sequence (P13569 with tags, fused parts or gaps DEL508-508): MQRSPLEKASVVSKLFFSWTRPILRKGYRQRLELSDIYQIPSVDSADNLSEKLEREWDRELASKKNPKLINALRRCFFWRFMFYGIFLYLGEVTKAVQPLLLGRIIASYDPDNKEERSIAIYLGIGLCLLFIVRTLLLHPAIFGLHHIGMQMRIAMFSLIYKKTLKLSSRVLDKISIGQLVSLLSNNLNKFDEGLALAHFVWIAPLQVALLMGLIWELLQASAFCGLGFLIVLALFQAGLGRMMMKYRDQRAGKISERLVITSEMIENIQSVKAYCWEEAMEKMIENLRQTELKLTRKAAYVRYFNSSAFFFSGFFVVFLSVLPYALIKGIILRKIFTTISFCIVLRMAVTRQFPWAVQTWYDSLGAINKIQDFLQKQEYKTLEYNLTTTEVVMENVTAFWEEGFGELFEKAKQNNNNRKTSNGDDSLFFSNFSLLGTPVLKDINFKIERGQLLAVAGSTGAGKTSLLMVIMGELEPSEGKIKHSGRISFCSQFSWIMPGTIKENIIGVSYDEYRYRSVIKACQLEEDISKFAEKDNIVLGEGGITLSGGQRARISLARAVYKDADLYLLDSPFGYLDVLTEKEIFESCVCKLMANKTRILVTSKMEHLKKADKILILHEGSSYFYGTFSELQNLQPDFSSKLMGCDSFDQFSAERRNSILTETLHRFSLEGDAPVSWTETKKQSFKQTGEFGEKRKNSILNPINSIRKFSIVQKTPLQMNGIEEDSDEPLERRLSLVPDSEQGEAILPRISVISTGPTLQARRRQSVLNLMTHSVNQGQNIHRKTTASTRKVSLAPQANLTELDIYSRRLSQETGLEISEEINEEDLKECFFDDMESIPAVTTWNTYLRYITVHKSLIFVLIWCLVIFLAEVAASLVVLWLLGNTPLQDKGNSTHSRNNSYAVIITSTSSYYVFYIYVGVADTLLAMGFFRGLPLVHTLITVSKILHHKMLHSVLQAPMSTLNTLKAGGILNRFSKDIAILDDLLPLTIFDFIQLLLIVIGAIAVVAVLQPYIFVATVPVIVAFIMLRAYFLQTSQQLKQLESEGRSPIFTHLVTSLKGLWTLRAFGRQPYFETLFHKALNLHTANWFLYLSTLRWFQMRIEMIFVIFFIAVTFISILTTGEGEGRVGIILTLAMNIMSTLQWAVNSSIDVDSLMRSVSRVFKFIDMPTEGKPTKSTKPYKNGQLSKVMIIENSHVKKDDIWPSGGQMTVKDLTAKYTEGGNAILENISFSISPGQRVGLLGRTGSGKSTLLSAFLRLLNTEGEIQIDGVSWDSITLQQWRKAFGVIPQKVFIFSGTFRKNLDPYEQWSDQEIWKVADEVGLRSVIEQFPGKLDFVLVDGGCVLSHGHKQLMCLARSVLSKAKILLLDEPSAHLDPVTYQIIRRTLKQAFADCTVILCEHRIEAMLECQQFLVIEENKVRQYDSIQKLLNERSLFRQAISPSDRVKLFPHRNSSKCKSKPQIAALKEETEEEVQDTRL

As usually defined, the EC50 is the midpoint of the concentration-response curve. The low end stands for an effect from little substance, the high end for a need for much substance. In the case of `CN(Cc1ccccc1)S(=O)(=O)c1cc(C(N)=O)c(NC(=O)c2ccn[nH]2)s1` [Compound 73, N-(5-(N-benzyl-N-methylsulfamoyl)-3-carbamoylthiophen-2-yl)-1H-pyrazole-3-carboxamide], the 50% effective concentration (EC50) worked out at 168 nM on CFTR-R117H; 15.7 nM on CFTR ΔF508 mutant [1]; 44.7 nM at CFTR-G178R; 25.1 nM at CFTR ΔF508 mutant [2]; 41.6 nM at CFTR-G1349D; 232 nM at CFTR G551D mutant. The EC50 on CFTR-S549N came out at 162 nM; on CFTR ΔF508 mutant [3] it was 16.5 nM.
On to `NC(=O)c1cc(S(=O)(=O)c2ccccc2)sc1NC(=O)c1cc[nH]n1` [Compound 83, N-(3-carbamoyl-5-(phenylsulfonyl)thiophen-2-yl)-1H-pyrazole-3-carboxamide], for which the EC50 at CFTR-R117H came out at 222 nM; at CFTR ΔF508 mutant [1] it was 12.1 nM; at CFTR-G178R it was 71.3 nM; on CFTR ΔF508 mutant [2], 42.8 nM; at CFTR-G1349D it was 152 nM; on CFTR G551D mutant it was 339 nM. Moreover, the half-maximal effective concentration (EC50) at CFTR-S549N came to 353 nM; at CFTR ΔF508 mutant [3] it was 30.8 nM.
With `NC(=O)c1cc(S(=O)(=O)c2ccc(F)cc2)sc1NC(=O)C1(CO)CC1` [Compound 254, 5-(4-fluorophenylsulfonyl)-2-(1-(hydroxymethyl)cyclopropanecarboxamido) thiophene-3-carboxamide], the EC50 was 127 nM on CFTR-R117H; 27.8 nM at CFTR ΔF508 mutant [1]; 58 nM on CFTR-G178R; 141 nM at CFTR-G1349D; 878 nM and 1410 nM on CFTR G551D mutant; 243 nM on CFTR-S549N. The EC50 at CFTR ΔF508 mutant [3] was 30.3 nM and 137 nM.
On to `CC(C)(O)C(=O)Nc1sc(S(=O)(=O)c2ccc(OC(F)(F)F)cc2)cc1C(N)=O` [Compound 270, 2-(2-hydroxy-2-methylpropanamido)-5-(4-(trifluoromethoxy)phenylsulfonyl) thiophene-3-carboxamide], for which the concentration for a half-maximal effect (EC50) on CFTR-R117H turned out to be 181 nM; at CFTR ΔF508 mutant [1], 18.3 nM; on CFTR-G178R, 291 nM; on CFTR-G1349D, 211 nM; on CFTR G551D mutant, 478 nM; at CFTR-S549N, 415 nM. Also, the EC50 at CFTR ΔF508 mutant [3] is 19.7 nM.
On to `CC(C)(O)C(=O)Nc1sc(S(=O)(=O)c2ccccc2OC(F)(F)F)cc1C(N)=O` [Compound 271, 2-(2-hydroxy-2-methylpropanamido)-5-(2-(trifluoromethoxy)phenylsulfonyl) thiophene-3-carboxamide], for which the EC50 is 40 nM on CFTR-R117H; 7.5 nM on CFTR ΔF508 mutant [1]; 23.9 nM at CFTR-G178R; 37.5 nM on CFTR-G1349D; 178 nM at CFTR G551D mutant; 60.9 nM at CFTR-S549N. At CFTR ΔF508 mutant [3], this compound came in with a concentration for a half-maximal effect (EC50) of 8.1 nM.
In the case of `CC(C)(O)C(=O)Nc1sc(S(=O)(=O)c2ccc(F)cc2Cl)cc1C(N)=O` [Compound 286, 5-(2-chloro-4-fluorophenylsulfonyl)-2-(2-hydroxy-2-methylpropanamido) thiophene-3-carboxamide], the EC50 on CFTR-R117H is 160 nM; at CFTR ΔF508 mutant [1], 26.5 nM; on CFTR-G178R, 165 nM; at CFTR-G1349D it was 304 nM; on CFTR G551D mutant it was 857 nM; at CFTR-S549N, 1150 nM. On CFTR ΔF508 mutant [3], the concentration giving a half-maximal response (EC50) was determined as 46.2 nM.
As to `CC(C)(O)C(=O)Nc1sc(S(=O)(=O)c2ccccc2Cl)cc1C(N)=O` [Compound 290, 5-(2-chlorophenylsulfonyl)-2-(2-hydroxy-2-methylpropanamido) thiophene-3-carboxamide], the EC50 at CFTR-R117H turned out to be 166 nM; on CFTR ΔF508 mutant [1] it was 27.6 nM; on CFTR-G178R, 207 nM; on CFTR-G1349D it was 258 nM; on CFTR G551D mutant, 880 nM; at CFTR-S549N it was 871 nM. Further, the EC50 on CFTR ΔF508 mutant [3] turned out to be 34.3 nM.
As to `CC(C)(O)C(=O)Nc1sc(S(=O)(=O)c2c(Cl)cccc2Cl)cc1C(N)=O` [Compound 298, 5-(2,6-Dichloro-benzenesulfonyl)-2-(2-hydroxy-2-methyl-propionylamino)-thiophene-3-carboxylic acid amide], the EC50 on CFTR-R117H is 97.2 nM; at CFTR ΔF508 mutant [1], 5.5 nM; at CFTR-G178R, 104 nM; on CFTR-G1349D it was 69.5 nM; at CFTR G551D mutant, 207 nM; on CFTR-S549N it was 164 nM. In addition, it took 6.2 nM to reach a half-maximal effect on CFTR ΔF508 mutant [3] (EC50).
Consider `CC(C)(O)C(=O)Nc1sc(S(=O)(=O)c2cccc(C(F)(F)F)n2)cc1C(N)=O` [Compound 427, 2-[(2-hydroxy-2-methyl-propanoyl)amino]-5-[[6-(trifluoromethyl)-2-pyridyl]sulfonyl] thiophene-3-carboxamide], for which the 50% effective concentration (EC50) is 1350 nM at CFTR-R117H; 42 nM at CFTR ΔF508 mutant [1]; 670 nM on CFTR-G178R; 438 nM on CFTR-G1349D; 2230 nM on CFTR G551D mutant; 1020 nM on CFTR-S549N.
On to `CC(C)(O)C(=O)Nc1sc(S(=O)(=O)c2cc(Cl)cc(C(F)(F)F)c2)cc1C(N)=O` [Compound 429, 5-[3-chloro-5-(trifluoromethyl)phenyl]sulfonyl-2-[(2-hydroxy-2-methyl-propanoyl)amino] thiophene-3-carboxamide], for which the half-maximal effective concentration (EC50) on CFTR-R117H came out at 208 nM; on CFTR ΔF508 mutant [1], 17.5 nM; on CFTR-G178R, 142 nM; on CFTR-G1349D, 229 nM; at CFTR G551D mutant it was 936 nM; at CFTR-S549N, 507 nM.
For the compound `Cc1cc(C(F)(F)F)cc(S(=O)(=O)c2cc(C(N)=O)c(NC(=O)C(C)(C)O)s2)c1` [Compound 430, 2-[(2-hydroxy-2-methyl-propanoyl)amino]-5-[3-methyl-5-(trifluoromethyl)phenyl] sulfonyl-thiophene-3-carboxamide], the concentration giving a half-maximal response (EC50) turned out to be 321 nM at CFTR-R117H; 10.7 nM at CFTR ΔF508 mutant [1]; 283 nM at CFTR-G178R; 3330 nM on CFTR-G1349D; 1500 nM on CFTR G551D mutant; 702 nM on CFTR-S549N.
Consider `CC(C)(O)C(=O)Nc1sc(S(=O)(=O)c2cc(Cl)ncc2C#N)cc1C(N)=O` [Compound 432, 5-[(2-chloro-5-cyano-4-pyridyl)sulfonyl]-2-[(2-hydroxy-2-methyl-propanoyl)amino] thiophene-3-carboxamide], for which the concentration giving a half-maximal response (EC50) at CFTR-R117H was found to be 359 nM; at CFTR ΔF508 mutant [1], 47.9 nM; at CFTR-G178R, 1110 nM; on CFTR-G1349D it was 3330 nM; at CFTR G551D mutant it was 5550 nM; at CFTR-S549N, 1480 nM.
`CC(C)(O)C(=O)Nc1sc(S(=O)(=O)c2ccc(C(C)(C)C)cn2)cc1C(N)=O` [Compound 433, 5-[(5-tert-butyl-2-pyridyl)sulfonyl]-2-[(2-hdyroxy-2-methyl-propanoyl)amino] thiophene-3-carboxamide]: the EC50 at CFTR-R117H stood at 676 nM; at CFTR ΔF508 mutant [1] it was 48.8 nM; on CFTR-G178R, 217 nM; at CFTR-G1349D it was 3330 nM; at CFTR G551D mutant it was 1300 nM; on CFTR-S549N it was 405 nM.
On to `NC(=O)c1cc(S(=O)(=O)c2ccc(OC(F)(F)F)cc2F)sc1NC(=O)C1(CO)CC1` [Compound 435, 5-[2-fluoro-4-(trifluoromethoxy)phenyl] sulfonyl-2-[[1-(hydroxymethyl)cyclopropanecarbonyl]amino] thiophene-3-carboxamide], for which the EC50 at CFTR-R117H turned out to be 173 nM; on CFTR ΔF508 mutant [1], 16.5 nM; on CFTR-G178R it was 33.8 nM; at CFTR-G1349D it was 117 nM; at CFTR G551D mutant, 1920 nM; on CFTR-S549N, 242 nM.
